Test system: Bovine cardiac myofibrils
Experiment: In vitro model of dose-dependent myofibril ATPase modulation (AC1.4, pyruvate kinase/lactate dehydrogenase-coupled ATPase assay at pCa25)
Format: biochemical
Details: concentration at which ATPase activity was 1.4-fold higher than the bottom of the dose curve, mean of a minimum of two independent tests
Summary of the method: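 Bovine cardiac myofibrils, detergent-treated; 0.25-1.0 mg/ml. Buffer: K-PIPES 12 mM, MgCl2 2 mM, DTT 1 mM, BSA 0.1 mg/ml, pH 6.80, 22° C; Ca2+ set by EGTA/CaCl2. ATP 1 mM, NADH/PEP-coupled, A340. 4-parameter fit; n≥2.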

With `Cc1ccc(CNC(=O)[C@H]2CCCN2C(=O)c2cccc(S(=O)(=O)N3CC(C#N)C3)c2)c(F)c1` [Example 76, 1-((3-((3-cyano-1-azetidinyl)sulfonyl)phenyl)carbonyl)-N-(2-fluoro-4-methylbenzyl)-D-prolinamide] as the compound, how does the AC1.4 read?
The AC1.4 was 0.1008 µM.

Which AC1.4 does the source give for `N#CC1CN(S(=O)(=O)N2CC(C(=O)N3CCC[C@@H]3C(=O)NCc3ccc(C(F)(F)F)cc3)CC(F)(F)C2)C1` (stereo partly drawn) [Example 77, 1-((-1-((3-cyano-1-azetidinyl)sulfonyl)-5,5-difluoro-3-piperidinyl)carbonyl)-N-(4-(trifluoromethyl)benzyl)-D-prolinamide] here?
The AC1.4 was 0.1016 µM.

With `N#CC1CN(S(=O)(=O)N2CCC[C@H](C(=O)N3CCC[C@@H]3C(=O)N[C@H](CO)c3ccc(Cl)c(F)c3)C2)C1` [Example 78, N-((1S)-1-(4-chloro-3-fluorophenyl)-2-hydroxyethyl)-1-(((3S)-1-((3-cyano-1-azetidinyl)sulfonyl)-3-piperidinyl)carbonyl)-D-prolinamide] as the compound, how does the AC1.4 read?
Its AC1.4 is 0.1023 µM.

Which AC1.4 does the source give for `CCNc1ccc(S(C)(=O)=O)cc1C(=O)N1CCC[C@@H]1C(=O)N[C@@H](c1ccc(C(F)(F)F)cc1F)C1CC1` [Example 79, N-((R)-cyclopropyl(2-fluoro-4-(trifluoromethyl)phenyl)methyl)-1-(2-(ethylamino)-5-(methylsulfonyl)benzoyl)-D-prolinamide] here?
The AC1.4 was 0.104 µM.

Which AC1.4 does the source give for `COC(=O)CS(=O)(=O)c1cccc(C(=O)N2[C@@H](C(=O)N[C@@H](c3cc(F)c(C(F)(F)F)cc3F)C3CC3)C[C@H]3C[C@H]32)c1` [Example 80, methyl((3-(((1R,3R,5R)-3-(((R)-cyclopropyl(2,5-difluoro-4-(trifluoromethyl)phenyl)methyl)carbamoyl)-2-azabicyclo[3.1.0]hexan-2-yl)carbonyl)phenyl)sulfonyl)acetate] here?
The AC1.4 was 0.1046 µM.

With `CC(C)Nc1ccc(S(C)(=O)=O)cc1C(=O)N1CCC[C@@H]1C(=O)N[C@@H](c1ccc(C(F)(F)F)cc1F)C1CC1` [Example 81, N-((R)-cyclopropyl(2-fluoro-4-(trifluoromethyl)phenyl)methyl)-1-(5-(methylsulfonyl)-2-(2-propanylamino)benzoyl)-D-prolinamide] as the compound, how does the AC1.4 read?
Its AC1.4 is 0.1048 µM.

Which AC1.4 does the source give for `C[C@@H]1CCN(S(=O)(=O)N2CC(C#N)C2)C[C@H]1C(=O)N1CCC[C@@H]1C(=O)NCc1ccc(C(F)(F)F)cc1` [Example 82, 1-(((3S,4R)-1-((3-cyano-1-azetidinyl)sulfonyl)-4-methyl-3-piperidinyl)carbonyl)-N-(4-(trifluoromethyl)benzyl)-D-prolinamide] here?
The AC1.4 was 0.1085 µM.

Which AC1.4 does the source give for `CS(=O)(=O)c1cc(F)cc(C(=O)N2[C@@H](C(=O)N[C@@H](c3cc(F)c(Cl)cc3F)C3COC3)C[C@H]3C[C@H]32)c1` [Example 83, (1R,3R,5R)-N-((R)-(4-chloro-2,5-difluorophenyl)(3-oxetanyl)methyl)-2-(3-fluoro-5-(methylsulfonyl)benzoyl)-2-azabicyclo[3.1.0]hexane-3-carboxamide] here?
Its AC1.4 is 0.1146 µM.

With `C[C@@H](NC(=O)[C@H]1CCCN1C(=O)[C@H]1CCCN(S(=O)(=O)N2CC(C#N)C2)C1)c1ccc(C(F)(F)F)cc1` [Example 84, 1-(((3S)-1-((3-cyano-1-azetidinyl)sulfonyl)-3-piperidinyl)carbonyl)-N-((1R)-1-(4-(trifluoromethyl)phenyl)ethyl)-D-prolinamide] as the compound, how does the AC1.4 read?
The AC1.4 was 0.1147 µM.

With `CC[C@H](NC(=O)[C@H]1CCCN1C(=O)c1cccc(S(=O)(=O)N2CC(C#N)C2)c1)c1ccc(C(F)(F)F)cc1` [Example 85, 1-(3-((3-cyano-1-azetidinyl)sulfonyl)benzoyl)-N-((1S)-1-(4-(trifluoromethyl)phenyl)propyl)-D-prolinamide] as the compound, how does the AC1.4 read?
Its AC1.4 is 0.1157 µM.

For `N#CC1CN(S(=O)(=O)N2CCC[C@H](C(=O)N3CCC[C@@H]3C(=O)N[C@H](CO)c3ccc(C(F)(F)F)cc3)C2)C1` [Example 88, 1-(((3S)-1-((3-cyano-1-azetidinyl)sulfonyl)-3-piperidinyl)carbonyl)-N-((1S)-2-hydroxy-1-(4-(trifluoromethyl)phenyl)ethyl)-D-prolinamide], which AC1.4 is on record?
The AC1.4 was 0.1344 µM.

Which AC1.4 does the source give for `CCCS(=O)(=O)c1cccc(C(=O)N2CCCC[C@@H]2C(=O)N[C@@H](c2ccc(C(F)(F)F)cc2F)C2CC2)c1` [Example 89, (2R)-N-((R)-cyclopropyl(2-fluoro-4-(trifluoromethyl)phenyl)methyl)-1-(3-(propylsulfonyl)benzoyl)-2-piperidinecarboxamide] here?
Its AC1.4 is 0.1357 µM.

With `N#CC1CN(S(=O)(=O)N2CCC[C@H](C(=O)N3C[C@H]4C[C@H]4[C@@H]3C(=O)NCc3ccc(C(F)(F)F)cc3)C2)C1` [Example 90, (1R,2R,5S)-3-(((3S)-1-((3-cyano-1-azetidinyl)sulfonyl)-3-piperidinyl)carbonyl)-N-(4-(trifluoromethyl)benzyl)-3-azabicyclo[3.1.0]hexane-2-carboxamide] as the compound, how does the AC1.4 read?
Its AC1.4 is 0.1363 µM.

`O=C(N[C@@H](c1cc(F)c(Cl)cc1F)C1CC1)[C@H]1C[C@H]2C[C@H]2N1C(=O)c1cccc(S(=O)(=O)C2CC2)c1` [Example 92, (1R,3R,5R)-N-((R)-(4-chloro-2,5-difluorophenyl)(cyclopropyl)methyl)-2-(3-(cyclopropylsulfonyl)benzoyl)-2-azabicyclo[3.1.0]hexane-3-carboxamide] was tested. Which AC1.4 did it give?
The AC1.4 was 0.1388 µM.

`N#CC1CN(S(=O)(=O)c2cccc(C(=O)N3Cc4ccccc4C3C(=O)NCc3ccc(C(F)(F)F)cc3)c2)C1` (stereo not drawn) [Example 93, 2-((3-((3-cyano-1-azetidinyl)sulfonyl)phenyl)carbonyl)-N-(4-(trifluoromethyl)benzyl)-2,3-dihydro-1H-isoindole-1-carboxamide] was tested. Which AC1.4 did it give?
The AC1.4 was 0.1413 µM.

For `O=C(N[C@@H](c1cc(F)c(Cl)cc1F)C1COC1)[C@H]1C[C@H]2C[C@H]2N1C(=O)c1cccc(S(=O)(=O)CCO)c1` [Example 94, (1R,3R,5R)-N-((R)-(4-chloro-2,5-difluorophenyl)(3-oxetanyl)methyl)-2-(3-((2-hydroxyethyl)sulfonyl)benzoyl)-2-azabicyclo[3.1.0]hexane-3-carboxamide], which AC1.4 is on record?
The AC1.4 was 0.1425 µM.

How did the AC1.4 turn out when `N#CC1CN(S(=O)(=O)c2cccc(C(=O)N3CC(F)(F)C[C@@H]3C(=O)NCc3ccc(C(F)(F)F)nc3)c2)C1` [Example 95, 1-((3-((3-cyano-1-azetidinyl)sulfonyl)phenyl)carbonyl)-4,4-difluoro-N-((6-(trifluoromethyl)-3-pyridinyl)methyl)-D-prolinamide] was run?
The AC1.4 was 0.1446 µM.

Which AC1.4 does the source give for `N#CC1CN(S(=O)(=O)c2cccc(C(=O)N3CCCCCC3C(=O)NCc3ccc(C(F)(F)F)cc3)c2)C1` (stereo not drawn) [Example 96, (2)-1-((3-((3-cyano-1-azetidinyl)sulfonyl)phenyl)carbonyl)-N-(4-(trifluoromethyl)benzyl)-2-azepanecarboxamide] here?
Its AC1.4 is 0.1452 µM.

For `COCC(NC(=O)[C@H]1CCCN1C(=O)[C@H]1CCCN(S(=O)(=O)N2CC(C#N)C2)C1)c1ccc(Cl)cc1` (stereo partly drawn) [Example 97, N-(-1-(4-chlorophenyl)-2-methoxyethyl)-1-(((3S)-1-((3-cyano-1-azetidinyl)sulfonyl)-3-piperidinyl)carbonyl)-D-prolinamide], which AC1.4 is on record?
Its AC1.4 is 0.1466 µM.

With `Cc1ccc([C@@H](C)NC(=O)[C@H]2CCCN2C(=O)[C@H]2CCCN(S(=O)(=O)N3CC(C#N)C3)C2)c(F)c1` [Example 98, 1-(((3S)-1-((3-cyano-1-azetidinyl)sulfonyl)-3-piperidinyl)carbonyl)-N-((1R)-1-(2-fluoro-4-methylphenyl)ethyl)-D-prolinamide] as the compound, how does the AC1.4 read?
Its AC1.4 is 0.1474 µM.

How did the AC1.4 turn out when `N#CC1CN(S(=O)(=O)N2CCC[C@H](C(=O)N3CCC[C@@H]3C(=O)NCc3ccc(Cl)cc3Cl)C2)C1` [Example 99, 1-(((3S)-1-((3-cyano-1-azetidinyl)sulfonyl)-3-piperidinyl)carbonyl)-N-(2,4-dichlorobenzyl)-D-prolinamide] was run?
Its AC1.4 is 0.1484 µM.

`N#CC1CN(S(=O)(=O)c2cccc(C(=O)N3CCC[C@@H]3C(=O)NCc3cc(F)cc(F)c3F)c2)C1` [Example 100, 1-(3-((3-cyano-1-azetidinyl)sulfonyl)benzoyl)-N-(2,3,5-trifluorobenzyl)-D-prolinamide] was tested. Which AC1.4 did it give?
Its AC1.4 is 0.1502 µM.

With `CC(C)(C)Nc1ccc(S(C)(=O)=O)cc1C(=O)N1[C@@H](C(=O)N[C@@H](c2ccc(C(F)(F)F)cc2F)C2CC2)C[C@H]2C[C@H]21` [Example 101, (1R,3R,5R)-N-((R)-cyclopropyl(2-fluoro-4-(trifluoromethyl)phenyl)methyl)-2-(2-((2-methyl-2-propanyl)amino)-5-(methylsulfonyl)benzoyl)-2-azabicyclo[3.1.0]hexane-3-carboxamide] as the compound, how does the AC1.4 read?
Its AC1.4 is 0.1559 µM.

For `N#CC1CN(S(=O)(=O)c2cccc(C(=O)N3CCC[C@@H]3C(=O)NCc3ccc(C(F)F)cc3)c2)C1` [Example 102, 1-((3-((3-cyano-1-azetidinyl)sulfonyl)phenyl)carbonyl)-N-(4-(difluoromethyl)benzyl)-D-prolinamide], which AC1.4 is on record?
Its AC1.4 is 0.1574 µM.

With `N#CC1CN(S(=O)(=O)N2C[C@H]3C[C@@H]2[C@H](C(=O)N2CCC[C@@H]2C(=O)NCc2ccc(C(F)(F)F)cc2F)C3)C1` [Example 103, 1-(((1R,4R,6R)-2-((3-cyano-1-azetidinyl)sulfonyl)-2-azabicyclo[2.2.1]hept-6-yl)carbonyl)-N-(2-fluoro-4-(trifluoromethyl)benzyl)-D-prolinamide] as the compound, how does the AC1.4 read?
Its AC1.4 is 0.1585 µM.

With `C[C@@H](NC(=O)[C@H]1CCCN1C(=O)[C@H]1CCCN(S(=O)(=O)N2CC(C#N)C2)C1)c1ccc(C(F)F)cc1F` [Example 104, 1-(((3S)-1-((3-cyano-1-azetidinyl)sulfonyl)-3-piperidinyl)carbonyl)-N-((1R)-1-(4-(difluoromethyl)-2-fluorophenyl)ethyl)-D-prolinamide] as the compound, how does the AC1.4 read?
Its AC1.4 is 0.1611 µM.

How did the AC1.4 turn out when `N#CC1CN(S(=O)(=O)c2cccc(C(=O)N3CCC[C@@H]3C(=O)N[C@@H](CO)c3ccc(Cl)c(F)c3)c2)C1` [Example 105, N-((1R)-1-(4-chloro-3-fluorophenyl)-2-hydroxyethyl)-1-(3-((3-cyano-1-azetidinyl)sulfonyl)benzoyl)-D-prolinamide] was run?
The AC1.4 was 0.1638 µM.

Source: patent publication US11780826B2 (Amgen Inc., priority 2017, dated 2023)
